# Measurements as given in patent publication US12473303B2, “4-[[(7-aminopyrazolo[1,5-a]pyrimidin-5-yl)amino methyl]piperidin-3-ol compounds and their therapeutic use” (CARRICK THERAPEUTICS LIMITED, priority 2019, dated 2025).
# Like-named read-outs stand apart in the source and are kept apart here.
# How the values were obtained:
# A673 cells = assay: Cellular potency in A673 cells; type: cell-based; settings: for IC50: Homo sapiens, A673, Table 3, A673 cells; for Ratio of Biochemical Potency: Cellular Potency: Table 3, ratio >0.9 is an indicator of Cyclin K degradation
# Human CDK12 wt/CycK = Human CDK12 wt/CycK (Homo sapiens (Human), UniProt Q9NYV4); assay: Radiometric protein kinase assay (33PanQinase Activity Assay), CDK12; type: biochemical; settings: for CDK7/CDK12: ratio greater than 1 indicated selectivity for CDK12
# Description: (§1) A radiometric protein kinase assay (^33PanQinase® Activity Assay) was used for measuring the kinase activity of the two protein kinases (CDK12/CDK7). All kinase assays were performed in 96-well FlashPlates™ from PerkinElmer (Boston, MA, USA) in a 50 μL reaction volume.
# (§2) The reaction cocktail was pipetted in four steps in the following order: • 20 μL of assay buffer (standard buffer) • 5 μL of ATP solution (in H2O) • 5 μL of test compound (in 10% DMSO) • 10 μL of substrate/10 μL of enzyme solution (premixed)
# (§3) The reaction mixture was incubated at 30° C. for 60 min and then stopped by the addition of 2% (v/v) H3PO4. Plates were aspirated and washed two times with 200 μL 0.9% (w/v) NaCl. Incorporation of ^33Pi was determined with a microplate scintillation count (Microbeta, Wallac).
# (§4) The fitting method used was a least-squares fit.
# Human CDK7/CycH/MAT1 = Human CDK7/CycH/MAT1 (Homo sapiens (Human), UniProt P50613); assay: Radiometric protein kinase assay (33PanQinase Activity Assay), CDK7; type: biochemical; settings: Table 1; ATP 3 μM
# Description: as §1, §2, §3, §4
# [1] = Table 1, ATP 0.3 μM, read-out: CDK12 IC50
# [2] = Table 3, CDK12 kinase activity, read-out: Biochemical Potency IC50
# Chain of Human CDK12 wt/CycK (Q9NYV4 whole entry): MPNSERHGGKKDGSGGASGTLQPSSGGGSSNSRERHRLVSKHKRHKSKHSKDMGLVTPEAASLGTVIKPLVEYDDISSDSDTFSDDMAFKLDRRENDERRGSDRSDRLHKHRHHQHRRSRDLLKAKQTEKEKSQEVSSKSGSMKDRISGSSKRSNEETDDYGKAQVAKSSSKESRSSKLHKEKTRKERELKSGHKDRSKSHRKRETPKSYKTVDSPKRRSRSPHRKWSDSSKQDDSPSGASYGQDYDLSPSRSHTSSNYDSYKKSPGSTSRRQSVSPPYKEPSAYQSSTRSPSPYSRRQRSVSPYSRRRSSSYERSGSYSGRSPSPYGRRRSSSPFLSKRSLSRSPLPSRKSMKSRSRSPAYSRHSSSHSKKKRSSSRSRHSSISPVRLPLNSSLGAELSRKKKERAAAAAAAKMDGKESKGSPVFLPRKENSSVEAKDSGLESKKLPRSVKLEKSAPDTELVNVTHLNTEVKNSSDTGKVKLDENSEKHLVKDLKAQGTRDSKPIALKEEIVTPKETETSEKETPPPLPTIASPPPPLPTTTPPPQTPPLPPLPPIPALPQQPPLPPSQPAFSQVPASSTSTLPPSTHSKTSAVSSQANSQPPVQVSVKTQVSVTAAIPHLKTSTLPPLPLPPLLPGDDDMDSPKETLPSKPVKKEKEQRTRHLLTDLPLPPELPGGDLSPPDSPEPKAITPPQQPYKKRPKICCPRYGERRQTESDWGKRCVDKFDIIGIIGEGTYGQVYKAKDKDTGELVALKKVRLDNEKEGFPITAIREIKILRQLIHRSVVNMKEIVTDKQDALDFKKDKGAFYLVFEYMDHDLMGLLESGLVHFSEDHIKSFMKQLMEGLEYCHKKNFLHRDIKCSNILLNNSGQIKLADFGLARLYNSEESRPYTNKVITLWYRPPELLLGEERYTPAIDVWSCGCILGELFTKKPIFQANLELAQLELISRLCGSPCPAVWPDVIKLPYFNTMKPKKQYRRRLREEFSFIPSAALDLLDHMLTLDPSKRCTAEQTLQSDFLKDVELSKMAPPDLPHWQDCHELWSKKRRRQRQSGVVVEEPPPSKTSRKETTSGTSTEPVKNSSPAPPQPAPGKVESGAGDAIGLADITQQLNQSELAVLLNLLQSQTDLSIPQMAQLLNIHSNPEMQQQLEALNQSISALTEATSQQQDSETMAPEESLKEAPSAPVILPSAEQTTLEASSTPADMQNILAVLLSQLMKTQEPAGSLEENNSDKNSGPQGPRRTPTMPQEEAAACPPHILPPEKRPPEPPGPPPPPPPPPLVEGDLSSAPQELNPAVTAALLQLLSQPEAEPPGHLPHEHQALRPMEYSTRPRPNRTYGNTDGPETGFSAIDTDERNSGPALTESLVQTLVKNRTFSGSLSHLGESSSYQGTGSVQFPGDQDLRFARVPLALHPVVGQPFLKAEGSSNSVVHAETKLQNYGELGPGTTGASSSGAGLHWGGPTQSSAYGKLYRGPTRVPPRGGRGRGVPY
# Chain of Human CDK12 wt/CycK (O75909 whole entry partner): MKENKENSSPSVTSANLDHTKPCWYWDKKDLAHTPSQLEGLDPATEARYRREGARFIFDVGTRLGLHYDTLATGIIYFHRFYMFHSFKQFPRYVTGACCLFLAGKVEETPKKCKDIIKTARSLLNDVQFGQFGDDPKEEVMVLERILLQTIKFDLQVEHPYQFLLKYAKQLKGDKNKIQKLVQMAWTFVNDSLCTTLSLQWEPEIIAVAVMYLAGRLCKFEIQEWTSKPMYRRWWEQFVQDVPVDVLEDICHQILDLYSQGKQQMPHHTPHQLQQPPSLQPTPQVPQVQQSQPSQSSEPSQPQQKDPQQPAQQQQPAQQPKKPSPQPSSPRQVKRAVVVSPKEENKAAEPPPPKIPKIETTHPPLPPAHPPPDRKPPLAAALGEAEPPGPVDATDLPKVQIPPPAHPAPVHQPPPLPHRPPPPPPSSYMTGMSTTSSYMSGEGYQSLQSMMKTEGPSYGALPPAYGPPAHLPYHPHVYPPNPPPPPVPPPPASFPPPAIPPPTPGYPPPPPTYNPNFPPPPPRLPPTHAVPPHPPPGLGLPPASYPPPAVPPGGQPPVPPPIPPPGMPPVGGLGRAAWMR
# Chain of Human CDK7/CycH/MAT1 (P50613 whole entry): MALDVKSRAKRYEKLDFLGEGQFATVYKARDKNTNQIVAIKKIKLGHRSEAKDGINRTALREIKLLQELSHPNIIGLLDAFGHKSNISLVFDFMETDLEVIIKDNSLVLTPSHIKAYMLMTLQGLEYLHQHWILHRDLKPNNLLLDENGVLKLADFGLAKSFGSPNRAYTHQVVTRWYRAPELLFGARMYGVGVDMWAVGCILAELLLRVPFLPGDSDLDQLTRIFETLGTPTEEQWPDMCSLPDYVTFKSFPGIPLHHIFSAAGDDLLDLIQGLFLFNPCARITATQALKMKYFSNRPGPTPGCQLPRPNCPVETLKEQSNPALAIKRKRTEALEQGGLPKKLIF
# Chain of Human CDK7/CycH/MAT1 (P51946 whole entry partner): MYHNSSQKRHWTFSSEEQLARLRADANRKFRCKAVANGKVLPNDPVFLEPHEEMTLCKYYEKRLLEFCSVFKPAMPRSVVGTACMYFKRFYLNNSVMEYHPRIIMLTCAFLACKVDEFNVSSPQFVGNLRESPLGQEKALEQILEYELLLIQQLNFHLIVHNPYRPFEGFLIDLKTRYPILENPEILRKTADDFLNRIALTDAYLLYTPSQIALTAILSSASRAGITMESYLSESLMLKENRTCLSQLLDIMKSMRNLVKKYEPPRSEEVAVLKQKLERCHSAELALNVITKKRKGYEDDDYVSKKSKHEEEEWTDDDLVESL
# Chain of Human CDK7/CycH/MAT1 (P51948 whole entry partner): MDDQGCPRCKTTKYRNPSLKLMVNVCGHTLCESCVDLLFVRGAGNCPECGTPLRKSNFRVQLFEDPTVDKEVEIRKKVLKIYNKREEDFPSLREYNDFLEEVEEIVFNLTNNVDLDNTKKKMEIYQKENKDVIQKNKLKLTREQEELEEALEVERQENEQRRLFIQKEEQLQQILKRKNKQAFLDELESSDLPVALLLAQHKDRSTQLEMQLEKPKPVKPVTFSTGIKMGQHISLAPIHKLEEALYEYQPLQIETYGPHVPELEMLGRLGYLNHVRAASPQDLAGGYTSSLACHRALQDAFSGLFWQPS
smiles,measurement,setting,value
"CC(C)c1cnn2c(NCc3cc4ccccc4o3)cc(NC[C@H]3CCNC[C@@H]3O)nc12 [H-APPAMP-020, (3R,4R)-4-(((7-((benzofuran-2-ylmethyl)amino)-3-isopropylpyrazolo[1,5-a]pyrimidin-5-yl)amino)methyl)piperidin-3-ol]",IC50,A673 cells,116 nM
same,Ratio of Biochemical Potency: Cellular Potency,A673 cells,4.7
same,IC50,Human CDK12 wt/CycK; [1],0.54 µM
same,CDK7/CDK12,Human CDK12 wt/CycK; Table 1,0.2
same,IC50,Human CDK12 wt/CycK; [2],0.54 µM
same,IC50,Human CDK7/CycH/MAT1,0.082 µM
"O[C@H]1CNCC[C@@H]1CNc1cc(NCc2cn3ccc(C(F)(F)F)cc3n2)n2ncc(C3CC3)c2n1 [H-APPAMP-035, (3R,4R)-4-(((3-cyclopropyl-7-(((7-(trifluoromethyl)imidazo[1,2-a]pyridin-2-yl)methyl)amino)pyrazolo[1,5-a]pyrimidin-5-yl)amino)methyl)piperidin-3-ol]",IC50,A673 cells,17.3 nM
same,Ratio of Biochemical Potency: Cellular Potency,A673 cells,2.5
same,IC50,Human CDK12 wt/CycK; [1],0.044 µM
same,CDK7/CDK12,Human CDK12 wt/CycK; Table 1,29.3
same,IC50,Human CDK12 wt/CycK; [2],0.044 µM
same,IC50,Human CDK7/CycH/MAT1,1.29 µM
"O[C@H]1CNCC[C@@H]1CNc1cc(NCc2cn3nc(C4CC4)ccc3n2)n2ncc(C3CC3)c2n1 [H-APPAMP-028, (3R,4R)-4-(((3-cyclopropyl-7-(((6-cyclopropylimidazo[1,2-b]pyridazin-2-yl)methyl)amino)pyrazolo[1,5-a]pyrimidin-5-yl)amino)methyl)piperidin-3-ol]",IC50,A673 cells,13.1 nM
same,Ratio of Biochemical Potency: Cellular Potency,A673 cells,2.8
same,IC50,Human CDK12 wt/CycK; [1],0.037 µM
same,CDK7/CDK12,Human CDK12 wt/CycK; Table 1,1.8
same,IC50,Human CDK12 wt/CycK; [2],0.037 µM
same,IC50,Human CDK7/CycH/MAT1,0.068 µM
"Cn1c(CNc2cc(NC[C@H]3CCNC[C@@H]3O)nc3c(C4CC4)cnn23)nc2cc(F)c(F)cc21 [H-APPAMP-036, (3R,4R)-4-(((3-cyclopropyl-7-(((5,6-difluoro-1-methyl-1H-benzo[d]imidazol-2-yl)methyl)amino)pyrazolo[1,5-a]pyrimidin-5-yl)amino)methyl)piperidin-3-ol]",IC50,A673 cells,10.4 nM
same,Ratio of Biochemical Potency: Cellular Potency,A673 cells,28
same,IC50,Human CDK12 wt/CycK; [1],0.287 µM
same,CDK7/CDK12,Human CDK12 wt/CycK; Table 1,4.0
same,IC50,Human CDK12 wt/CycK; [2],0.287 µM
same,IC50,Human CDK7/CycH/MAT1,1.15 µM
"CC(C)c1cnn2c(NCc3cnc4ccccn34)cc(NC[C@H]3CCNC[C@@H]3O)nc12 [H-APPAMP-016, (3R,4R)-4-(((7-((imidazo[1,2-a]pyridin-3-ylmethyl)amino)-3-isopropylpyrazolo[1,5-a]pyrimidin-5-yl)amino)methyl)piperidin-3-ol]",IC50,A673 cells,14.8 nM
same,Ratio of Biochemical Potency: Cellular Potency,A673 cells,6.5
same,IC50,Human CDK12 wt/CycK; [1],0.096 µM
same,CDK7/CDK12,Human CDK12 wt/CycK; Table 1,1.9
same,IC50,Human CDK12 wt/CycK; [2],0.096 µM
same,IC50,Human CDK7/CycH/MAT1,0.179 µM
"Cc1cccc2nc(CNc3cc(NC[C@H]4CCNC[C@@H]4O)nc4c(C(C)C)cnn34)cn12 [H-APPAMP-010, (3R,4R)-4-(((3-isopropyl-7-(((5-methylimidazo[1,2-a]pyridin-2-yl)methyl)amino)pyrazolo[1,5-a]pyrimidin-5-yl)amino)methyl)piperidin-3-ol]",IC50,A673 cells,4.3 nM
same,Ratio of Biochemical Potency: Cellular Potency,A673 cells,9.3
same,IC50,Human CDK12 wt/CycK; [1],0.04 µM
same,CDK7/CDK12,Human CDK12 wt/CycK; Table 1,6.0
same,IC50,Human CDK12 wt/CycK; [2],0.04 µM
same,IC50,Human CDK7/CycH/MAT1,0.238 µM
"[2H]C([2H])(Nc1cc(NC[C@H]2CCNC[C@@H]2O)nc2c(C(C)C)cnn12)c1cn2ccccc2n1 [H-APPAMP-018, (3R,4R)-4-(((7-((imidazo[1,2-a]pyridin-2-ylmethyl-d2)amino)-3-isopropylpyrazolo[1,5-a]pyrimidin-5-yl)amino)methyl)piperidin-3-ol]",IC50,A673 cells,16.3 nM
same,Ratio of Biochemical Potency: Cellular Potency,A673 cells,4.0
same,IC50,Human CDK12 wt/CycK; [1],0.065 µM
same,CDK7/CDK12,Human CDK12 wt/CycK; Table 1,3.2
same,IC50,Human CDK12 wt/CycK; [2],0.065 µM
same,IC50,Human CDK7/CycH/MAT1,0.206 µM
"CC(C)c1cnn2c(NC(C)c3cn4ccccc4n3)cc(NC[C@H]3CCNC[C@@H]3O)nc12 (stereo partly drawn) [H-APPAMP-019, (3R,4R)-4-(((7-((1-(imidazo[1,2-a]pyridin-2-yl)ethyl)amino)-3-isopropylpyrazolo[1,5-a]pyrimidin-5-yl)amino)methyl)piperidin-3-ol]",IC50,A673 cells,76.9 nM
same,Ratio of Biochemical Potency: Cellular Potency,A673 cells,6.8
same,IC50,Human CDK12 wt/CycK; [1],0.522 µM
same,CDK7/CDK12,Human CDK12 wt/CycK; Table 1,1.2
same,IC50,Human CDK12 wt/CycK; [2],0.522 µM
same,IC50,Human CDK7/CycH/MAT1,0.64 µM
"Cc1cccn2cc(CNc3cc(NC[C@H]4CCNC[C@@H]4O)nc4c(C5CCC5)cnn34)nc12 [H-APPAMP-029, (3R,4R)-4-(((3-cyclobutyl-7-(((8-methylimidazo[1,2-a]pyridin-2-yl)methyl)amino)pyrazolo[1,5-a]pyrimidin-5-yl)amino)methyl)piperidin-3-ol]",IC50,A673 cells,18.5 nM
same,Ratio of Biochemical Potency: Cellular Potency,A673 cells,3.5
same,IC50,Human CDK12 wt/CycK; [1],0.065 µM
same,CDK7/CDK12,Human CDK12 wt/CycK; Table 1,3.0
same,IC50,Human CDK12 wt/CycK; [2],0.065 µM
same,IC50,Human CDK7/CycH/MAT1,0.196 µM
"Cc1cccn2cc(CNc3cc(NC[C@H]4CCNC[C@@H]4O)nc4c(C5CC5)cnn34)nc12 [H-APPAMP-022, (3R,4R)-4-(((3-cyclopropyl-7-(((8-methylimidazo[1,2-a]pyridin-2-yl)methyl)amino)pyrazolo[1,5-a]pyrimidin-5-yl)amino)methyl)piperidin-3-ol]",IC50,A673 cells,10.3 nM
same,Ratio of Biochemical Potency: Cellular Potency,A673 cells,16
same,IC50,Human CDK12 wt/CycK; [1],0.164 µM
same,CDK7/CDK12,Human CDK12 wt/CycK; Table 1,3.8
same,IC50,Human CDK12 wt/CycK; [2],0.164 µM
same,IC50,Human CDK7/CycH/MAT1,0.622 µM
"CC(C)c1cnn2c(NCc3cn4ccccc4n3)cc(NC[C@H]3CCNC[C@@H]3O)nc12 [H-APPAMP-003, (3R,4R)-4-(((7-((imidazo[1,2-a]pyridin-2-ylmethyl)amino)-3-isopropylpyrazolo[1,5-a]pyrimidin-5-yl)amino)methyl)piperidin-3-ol]",IC50,A673 cells,8 nM
same,Ratio of Biochemical Potency: Cellular Potency,A673 cells,6.2
same,IC50,Human CDK12 wt/CycK; [1],0.0502 µM
same,CDK7/CDK12,Human CDK12 wt/CycK; Table 1,8.19
same,IC50,Human CDK12 wt/CycK; [2],0.05 µM
same,IC50,Human CDK7/CycH/MAT1,0.411 µM
"CC(C)c1cnn2c(NCc3nc4ccccn4c3C3CC3)cc(NC[C@H]3CCNC[C@@H]3O)nc12 [H-APPAMP-024, (3R,4R)-4-(((7-(((3-cyclopropylimidazo[1,2-a]pyridin-2-yl)methyl)amino)-3-isopropylpyrazolo[1,5-a]pyrimidin-5-yl)amino)methyl)piperidin-3-ol]",IC50,A673 cells,19.8 nM
same,Ratio of Biochemical Potency: Cellular Potency,A673 cells,4.7
same,IC50,Human CDK12 wt/CycK; [1],0.093 µM
same,CDK7/CDK12,Human CDK12 wt/CycK; Table 1,3.0
same,IC50,Human CDK12 wt/CycK; [2],0.093 µM
same,IC50,Human CDK7/CycH/MAT1,0.283 µM
"CC(C)c1cnn2c(NCc3cnc4ccccc4c3)cc(NC[C@H]3CCNC[C@@H]3O)nc12 [H-APPAMP-021, (3R,4R)-4-(((3-isopropyl-7-((quinolin-3-ylmethyl)amino)pyrazolo[1,5-a]pyrimidin-5-yl)amino)methyl)piperidin-3-ol]",IC50,A673 cells,2.7 nM
same,Ratio of Biochemical Potency: Cellular Potency,A673 cells,62
same,IC50,Human CDK12 wt/CycK; [1],0.167 µM
same,CDK7/CDK12,Human CDK12 wt/CycK; Table 1,0.2
same,IC50,Human CDK12 wt/CycK; [2],0.167 µM
same,IC50,Human CDK7/CycH/MAT1,0.028 µM
"Cc1c(CNc2cc(NC[C@H]3CCNC[C@@H]3O)nc3c(C(C)C)cnn23)nc2ccccn12 [H-APPAMP-017, (3R,4R)-4-(((3-isopropyl-7-(((3-methylimidazo[1,2-a]pyridin-2-yl)methyl)amino)pyrazolo[1,5-a]pyrimidin-5-yl)amino)methyl)piperidin-3-ol]",IC50,A673 cells,8.3 nM
same,Ratio of Biochemical Potency: Cellular Potency,A673 cells,17.2
same,IC50,Human CDK12 wt/CycK; [1],0.063 µM
same,CDK7/CDK12,Human CDK12 wt/CycK; Table 1,0.6
same,IC50,Human CDK12 wt/CycK; [2],0.143 µM
same,IC50,Human CDK7/CycH/MAT1,0.04 µM
"Cc1cccc2ncc(CNc3cc(NC[C@H]4CCNC[C@@H]4O)nc4c(C(C)C)cnn34)n12 [H-APPAMP-001, (3R,4R)-4-(((3-isopropyl-7-(((5-methylimidazo[1,2-a]pyridin-3-yl)methyl)amino)pyrazolo[1,5-a]pyrimidin-5-yl)amino)methyl)piperidin-3-ol]",IC50,A673 cells,123 nM
same,Ratio of Biochemical Potency: Cellular Potency,A673 cells,0.3
same,IC50,Human CDK12 wt/CycK; [1],0.038 µM
same,CDK7/CDK12,Human CDK12 wt/CycK; Table 1,11.5
same,IC50,Human CDK12 wt/CycK; [2],0.038 µM
same,IC50,Human CDK7/CycH/MAT1,0.436 µM
